Experimental data as given in ChEMBL document CHEMBL1144791, “Facile synthesis of substituted trans-2-arylcyclopropylamine inhibitors of the human histone demethylase LSD1 and monoamine oxidases A and B” (Bioorg Med Chem Lett, 2008).

Key:
Inhibition of human MAOA = conditions: read-out: Kinact
[1] = molecular target: MAO-B (amine oxidase [flavin-containing] B), Homo sapiens (UniProt P27338); test: Ratio of Kinact to KI of human MAOB
[2] = molecular target: MAO-A (amine oxidase [flavin-containing] A), Homo sapiens (UniProt P21397); test: Ratio of Kinact to KI of human MAOA
Sequence of MAO-A (amine oxidase [flavin-containing] A), Homo sapiens (P21397 whole entry, looked up): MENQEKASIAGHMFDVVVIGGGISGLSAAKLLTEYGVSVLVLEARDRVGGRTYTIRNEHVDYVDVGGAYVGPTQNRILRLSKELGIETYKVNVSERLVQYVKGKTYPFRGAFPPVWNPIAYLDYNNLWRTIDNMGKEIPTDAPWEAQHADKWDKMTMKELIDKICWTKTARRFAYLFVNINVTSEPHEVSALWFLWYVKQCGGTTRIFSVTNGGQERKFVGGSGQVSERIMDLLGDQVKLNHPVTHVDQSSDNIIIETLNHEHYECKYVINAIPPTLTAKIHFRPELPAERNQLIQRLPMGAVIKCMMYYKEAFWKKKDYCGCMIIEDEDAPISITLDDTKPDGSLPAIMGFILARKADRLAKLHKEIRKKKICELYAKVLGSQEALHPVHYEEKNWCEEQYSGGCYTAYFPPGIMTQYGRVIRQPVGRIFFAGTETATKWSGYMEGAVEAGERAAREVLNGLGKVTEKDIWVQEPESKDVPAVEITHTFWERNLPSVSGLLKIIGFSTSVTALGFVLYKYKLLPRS

Inhibition of human MAOB = conditions: read-out: Kinact

Sequence of MAO-B (amine oxidase [flavin-containing] B), Homo sapiens (P27338 whole entry, looked up): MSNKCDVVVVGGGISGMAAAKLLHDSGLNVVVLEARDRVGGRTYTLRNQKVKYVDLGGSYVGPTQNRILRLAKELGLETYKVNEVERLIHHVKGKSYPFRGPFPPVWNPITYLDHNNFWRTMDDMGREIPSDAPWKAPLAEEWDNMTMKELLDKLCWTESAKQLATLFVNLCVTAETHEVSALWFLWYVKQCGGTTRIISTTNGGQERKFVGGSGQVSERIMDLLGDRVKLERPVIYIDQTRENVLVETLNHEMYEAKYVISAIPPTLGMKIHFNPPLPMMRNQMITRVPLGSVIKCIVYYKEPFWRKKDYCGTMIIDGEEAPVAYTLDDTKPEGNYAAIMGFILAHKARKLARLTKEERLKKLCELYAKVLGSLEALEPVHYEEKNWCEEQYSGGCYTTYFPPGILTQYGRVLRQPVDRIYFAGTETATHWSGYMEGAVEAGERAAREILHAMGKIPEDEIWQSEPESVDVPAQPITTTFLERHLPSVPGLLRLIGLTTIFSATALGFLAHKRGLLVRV

KI (inactivation) (Inhibition of human MAOA) [µM] | kinact/KI [1] [M⁻¹ s⁻¹] | kinact/KI [2] [M⁻¹ s⁻¹] | Compound | KI (inactivation) (Inhibition of human MAOB) [µM]
1550 | 22.3 | < 18 | N[C@@H]1C[C@H]1c1ccsc1 (relative stereo) | 
9.8 | 4840 | 362 | N[C@@H]1C[C@H]1c1cccc2ccccc12 (relative stereo) | 38.7
 | < 1.5 | < 14 | NC1CC1(c1ccccc1)c1ccccc1 (stereo not drawn) | 

Compound | KI (inactivation) (Inhibition of human MAOA) [µM] | kinact/KI [1] [M⁻¹ s⁻¹] | kinact/KI [2] [M⁻¹ s⁻¹] | KI (inactivation) (Inhibition of human MAOB) [µM]
N[C@@H]1C[C@H]1c1ccc(C(F)(F)F)cc1 (relative stereo) | 7.7 | 7510 | 2860 | 29.8
